Laboratory results: ChEMBL document CHEMBL3217552, “Novel benzothiazole derivatives with a broad antifungal spectrum: design, synthesis and structureactivity relationships” (2013)
In brackets after ≈: the same amount, converted by molar mass. Activity calls are given as the source filed them. The calls are words filed in the database; no cut-off is given here.

Columns and labels:
Trichophyton rubrum = experiment: Antifungal activity against Trichophyton rubrum after 72 hrs by serial dilution method; type: functional
Cryptococcus neoformans = experiment: Antifungal activity against Cryptococcus neoformans after 72 hrs by serial dilution method; type: functional
Nakaseomyces glabratus = experiment: Antifungal activity against Candida glabrata after 24 hrs by serial dilution method; type: functional
Candida parapsilosis = experiment: Antifungal activity against Candida parapsilosis after 24 hrs by serial dilution method; type: functional; conditions: Lodderomyces parapsilosis
Candida albicans [1] = experiment: Antifungal activity against Candida albicans after 24 hrs by serial dilution method; type: functional
Nannizzia gypsea = experiment: Antifungal activity against Microsporum gypseum after 72 hrs by serial dilution method; type: functional
Candida albicans [2] = experiment: Antifungal activity against Candida albicans SC5314 infected in Caenorhabditis elegans assessed as nematode survival at 16 ug/ml after 144 hrs by serial dilution method; type: functional; conditions: SC5314, 144 h
Candida albicans [3] = experiment: Antifungal activity against Candida albicans SC5314 infected in Caenorhabditis elegans assessed as nematode survival at 32 ug/ml after 144 hrs by serial dilution method; type: functional, organism-based

Row | SMILES | MIC80 (Trichophyton rubrum) [mg/L] | MIC80 (Cryptococcus neoformans) [mg/L] | MIC80 (Nakaseomyces glabratus) [mg/L] | MIC80 (Candida parapsilosis) [mg/L] | MIC80 (Candida albicans [1]) [mg/L] | MIC80 (Nannizzia gypsea) [mg/L] | survival at 16 µg/mL (Candida albicans [2]) [%] | Activity (Candida albicans [3])
1 | O=C(Nc1ccc2nc(NC(=O)[C@@H]3CCC[C@H](NCc4ccc5ccccc5c4)C3)sc2c1)C1CCCC1 (relative stereo) | 32 (≈ 60.8 µM) | 32 (≈ 60.8 µM) | 16 (≈ 30.4 µM) | > 64 | 8 (≈ 15.2 µM) | 32 (≈ 60.8 µM) | – | –
2 | O=C(Nc1nc2ccc(NC(=O)[C@@H]3CCC[C@H](NCc4ccc5ccccc5c4)C3)cc2o1)C1CCCC1 (relative stereo) | > 64 | > 64 | > 64 | > 64 | > 64 | 1 (≈ 1.96 µM) | – | –
3 | COc1ccc2cc(CN[C@H]3CCC[C@@H](C(=O)Nc4ccc5nc(NC(=O)C6CCCC6)sc5c4)C3)ccc2c1 (relative stereo) | > 64 | > 64 | > 64 | > 64 | > 64 | > 64 | – | –
4 | O=C(Nc1nc2ccc(NC(=O)[C@@H]3CCC[C@H](NCc4ccc5ccccc5n4)C3)cc2s1)C1CCCC1 (relative stereo) | > 64 | > 64 | > 64 | > 64 | > 64 | > 64 | – | –
5 | O=C(Nc1nc2ccc(NC(=O)[C@@H]3CCC[C@H](NCc4cccc5cccnc45)C3)cc2s1)C1CCCC1 (relative stereo) | > 64 | > 64 | > 64 | > 64 | > 64 | > 64 | – | –
6 | O=C(Nc1nc2ccc(NC(=O)[C@@H]3CCC[C@H](NCc4cnc5ccccc5c4)C3)cc2s1)C1CCCC1 | 8 (≈ 15.2 µM) | 4 (≈ 7.58 µM) | > 64 | 8 (≈ 15.2 µM) | 8 (≈ 15.2 µM) | > 64 | – | –
7 | O=C(Nc1nc(-c2ccc(NC(=O)[C@H]3CCC[C@@H](NCc4ccc5ccccc5c4)C3)cc2)cs1)C1CCCC1 (relative stereo) | 32 (≈ 57.9 µM) | > 64 | > 64 | > 64 | > 64 | 0.125 (≈ 0.226 µM) | – | –
8 | O=C(Nc1nc2ccc(NC(=O)[C@@H]3CCC[C@H](NCC4CNc5ccccc5C4)C3)cc2s1)C1CCCC1 (relative stereo) | > 64 | > 64 | > 64 | > 64 | 32 (≈ 60.2 µM) | 64 (≈ 120 µM) | – | –
9 | O=C(Nc1ccc2nc(NC(=O)[C@@H]3CCC[C@H](NCc4ccc5ncccc5c4)C3)sc2c1)C1CCCC1 (relative stereo) | > 64 | > 64 | > 64 | > 64 | > 64 | 32 (≈ 60.6 µM) | – | –
10 | O=C(Nc1nc2ccc(NC(=O)[C@@H]3CCC[C@H](NCc4cccc5ccccc45)C3)cc2s1)C1CCCC1 (relative stereo) | > 64 | > 64 | > 64 | > 64 | > 64 | > 64 | – | –
11 | O=C(Nc1ccc2nc(NC(=O)[C@@H]3CCC[C@H](NCc4ccc5ccccc5n4)C3)sc2c1)C1CCCC1 (relative stereo) | > 64 | > 64 | > 64 | > 64 | > 64 | 64 (≈ 121 µM) | – | –
12 | O=C(Nc1nc2ccc(NC(=O)[C@@H]3CCC[C@H](NCc4cc5ccccc5nc4Cl)C3)cc2s1)C1CCCC1 (relative stereo) | > 64 | > 64 | > 64 | > 64 | > 64 | > 64 | – | –
13 | O=C(Nc1nc2ccc(NC(=O)[C@@H]3CCC[C@H](NCc4ccc5ccccc5c4)C3)cc2s1)C1CCCC1 (racemic) | > 64 | > 64 | > 64 | > 64 | 4 (≈ 7.59 µM) | > 64 | – | –
14 | O=C(Nc1nc2ccc(NC(=O)[C@@H]3CCC[C@H](NCC4CCc5ncccc5C4)C3)cc2s1)C1CCCC1 (relative stereo) | > 64 | > 64 | > 64 | 64 (≈ 120 µM) | 16 (≈ 30.1 µM) | > 64 | – | –
15 | COc1ccc(CN[C@H]2CCC[C@@H](C(=O)Nc3ccc4nc(NC(=O)C5CCCC5)sc4c3)C2)c2ccccc12 (relative stereo) | > 64 | > 64 | > 64 | > 64 | > 64 | > 64 | – | –
16 | O=C(Nc1ccc2nc(NC(=O)[C@@H]3CCC[C@H](NCc4cnc5ccccc5c4)C3)sc2c1)C1CCCC1 (relative stereo) | > 64 | > 64 | > 64 | > 64 | > 64 | 64 (≈ 121 µM) | – | –
17 | O=C(Nc1nc2ccc(NC(=O)[C@@H]3CCC[C@H](NCc4ccc5ncccc5c4)C3)cc2s1)C1CCCC1 (relative stereo) | 4 (≈ 7.58 µM) | 4 (≈ 7.58 µM) | 0.125 (≈ 0.237 µM) | 4 (≈ 7.58 µM) | 4 (≈ 7.58 µM) | > 64 | 60 | –
18 | O=C(Nc1ccc2nc(NC(=O)[C@@H]3CCC[C@H](NCc4ccnc5ccccc45)C3)sc2c1)C1CCCC1 (relative stereo) | > 64 | 16 (≈ 30.3 µM) | 16 (≈ 30.3 µM) | > 64 | > 64 | > 64 | – | –
19 | O=C(Nc1nc2ccc(NC(=O)[C@@H]3CCC[C@H](NCc4ccnc5ccccc45)C3)cc2s1)C1CCCC1 (relative stereo) | > 64 | > 64 | > 64 | > 64 | > 64 | 16 (≈ 30.3 µM) | – | –
20 | COc1ccc2ccccc2c1CN[C@H]1CCC[C@@H](C(=O)Nc2ccc3nc(NC(=O)C4CCCC4)sc3c2)C1 (relative stereo) | 64 (≈ 115 µM) | > 64 | > 64 | > 64 | > 64 | 64 (≈ 115 µM) | – | –
21 | OC(Cn1cncn1)(Cn1cncn1)c1ccc(F)cc1F [FLUCONAZOLE] | 4 (≈ 13.1 µM) | 16 (≈ 52.2 µM) | 2 (≈ 6.53 µM) | 2 (≈ 6.53 µM) | 0.5 (≈ 1.63 µM) | 32 (≈ 104 µM) | – | Active
22 | O=C(Nc1nc2ccc(NC(=O)[C@@H]3CCC[C@H](NCc4ccc5ccccc5n4)C3)cc2o1)C1CCCC1 (relative stereo) | > 64 | > 64 | > 64 | > 64 | > 64 | 1 (≈ 1.95 µM) | – | –
23 | O=C(Nc1nc2ccc(NC(=O)[C@@H]3CCC[C@H](NCc4ccc5ccccc5c4Br)C3)cc2s1)C1CCCC1 (relative stereo) | 64 (≈ 106 µM) | > 64 | > 64 | > 64 | > 64 | 64 (≈ 106 µM) | – | –
24 | CCOc1ccc2ccccc2c1CN[C@H]1CCC[C@@H](C(=O)Nc2ccc3nc(NC(=O)C4CCCC4)sc3c2)C1 (relative stereo) | 64 (≈ 112 µM) | > 64 | > 64 | > 64 | > 64 | 64 (≈ 112 µM) | – | –
